# Laboratory results as given in PMC9828337 (Angewandte Chemie (International Ed. in English), 2022).
# System: CurKC-CurALP and CurKCkinase-CurKClyase
# Experiment: MST binding with or without an ATP analog
# Design: species or system Thermomonospora curvata DSM43183
# Details: three replicates
smiles,measurement,value
Nc1ncnc2c1ncn2[C@@H]1O[C@H](COP(=O)(O)OP(=O)(O)OP(=O)(O)O)[C@@H](O)[C@H]1O [ATP],effect on leader binding and lyase–kinase association,little impact on the leader binding and lyase–kinase association
